Experimental data published in patent US9782399B2, “Pharmaceutical compositions which inhibit FKBP52-mediated regulation of androgen receptor function and methods of using same” (The United States of America, as represented by the …, priority 2009, dated 2017).

Tested on: FKBP52-enhanced AR function
Assay: AR-mediated luciferase reporter assay in 52KO MEF cells
Assay type: cell-based, murine
Conditions: compound 1 hour, then DHT 16 hours
Method: FIG. 5B is a bar graph showing data from an experiment where 52KO MEF cells were treated at 50% confluency with a range of concentrations of Compound 2, and cell numbers were counted by trypan blue exclusion after 24 hours. FIG. 5C depicts Western blots on the same cell lysates from FIG. 5B, with compound 2 concentrations starting at 0, and increasing from about 0.1, 1, 10, to 100 μM.
To further characterize the compounds of interest selected from the yeast library assay, the inventors created a mammalian model system, comprising a receptor-mediated luciferase reporter assay, using in a murine embryonic fibroblast cell line (MEF) which has the gene for FKBP52 knocked out (52KO MEFs). […] To control for specificity and general toxicity, the inventors assessed the effects of the inhibitors on receptor function in the absence of FKBP52. […] The half maximal lethal dose (LD50) was also determined for all cell types used in these studies. The LD50 was determined by performing dose response curves in which the measure of toxicity will be cell death (via trypan blue exclusion). […]
β-galactosidase activity was measured by addition of 100 μl Tropix Gal-Screen assay reagent (Applied Biosystems, Foster City, Calif.) to about 6 μl lysate in an opaque 96-well plate. […]

Cc1ccc(NC(=O)c2ccccc2C(=O)O)cc1C [Compound 1]
inhibition of FKBP52-enhanced AR function in mammalian cells: consistent from yeast to mammalian cells
